In ChEMBL document CHEMBL3046265, “Synthesis, evaluation of antimicrobial activity, and molecular modeling of novel 2-((4-(2H-benzo[d] [1,2,3] triazol-2-yl)piperidin-1-yl)methyl)-5-substituted phenyl-1,3,4-oxadiazoles” (2013):
Calls of active or inactive are those of the source. The rule behind the calls is not given here.

Experiments:
Type in all cases: functional
Klebsiella pneumoniae [1] = assay: Antibacterial activity against Klebsiella pneumoniae at 900 ug/ml after overnight incubation; settings: read-out: IZ
Colletotrichum falcatum [2] = assay: Antifungal activity against Glomerella tucumanensis at 900 ug/ml after 48 hr; settings: read-out: IZ
Colletotrichum falcatum [3] = assay: Antifungal activity against Glomerella tucumanensis at 600 ug/ml after 48 hr; settings: read-out: IZ
Proteus vulgaris [4] = assay: Antibacterial activity against Proteus vulgaris at 900 ug/ml after overnight incubation; settings: read-out: IZ
Exserohilum rostratum [5] = assay: Antifungal activity against Setosphaeria rostrata at 1200 ug/ml after 48 hr; settings: read-out: IZ
Exserohilum rostratum [6] = assay: Antifungal activity against Setosphaeria rostrata at 300 ug/ml after 48 hr; settings: read-out: IZ
Staphylococcus aureus [7] = assay: Antibacterial activity against Staphylococcus aureus at 600 ug/ml after overnight incubation; settings: for zone of inhibition at 600 µg/mL: read-out: IZ
Candida albicans [8] = assay: Antifungal activity against Candida albicans at 900 ug/ml after 48 hr; settings: read-out: IZ
Klebsiella aerogenes [9] = assay: Antibacterial activity against Enterobacter aerogenes at 900 ug/ml after overnight incubation; settings: read-out: IZ
Escherichia coli [10] = assay: Antibacterial activity against Escherichia coli at 600 ug/ml after overnight incubation; settings: read-out: IZ
Klebsiella aerogenes [11] = assay: Antibacterial activity against Enterobacter aerogenes at 600 ug/ml after overnight incubation; settings: read-out: IZ
Fusarium oxysporum [12] = assay: Antifungal activity against Fusarium oxysporum at 600 ug/ml after 48 hr; settings: read-out: IZ
Colletotrichum falcatum [13] = assay: Antifungal activity against Glomerella tucumanensis at 1200 ug/ml after 48 hr; settings: read-out: IZ
Bacillus subtilis [14] = assay: Antibacterial activity against Bacillus subtilis at 600 ug/ml after overnight incubation; settings: read-out: IZ
Candida albicans [15] = assay: Antifungal activity against Candida albicans at 300 ug/ml after 48 hr; settings: read-out: IZ
Enterococcus faecalis [16] = assay: Antibacterial activity against Enterococcus faecalis at 900 ug/ml after overnight incubation; settings: read-out: IZ
Streptococcus pyogenes [17] = assay: Antibacterial activity against Streptococcus pyogenes at 600 ug/ml after overnight incubation; settings: read-out: IZ
Exserohilum rostratum [18] = assay: Antifungal activity against Setosphaeria rostrata at 900 ug/ml after 48 hr; settings: read-out: IZ
Fusarium oxysporum [19] = assay: Antifungal activity against Fusarium oxysporum at 900 ug/ml after 48 hr; settings: read-out: IZ
Priestia megaterium [20] = assay: Antibacterial activity against Bacillus megaterium at 900 ug/ml after overnight incubation; settings: for zone of inhibition at 900 µg/mL: read-out: IZ
Fusarium oxysporum [21] = assay: Antifungal activity against Fusarium oxysporum at 300 ug/ml after 48 hr; settings: read-out: IZ
Bacillus pumilus [22] = assay: Antibacterial activity against Bacillus pumilus at 900 ug/ml after overnight incubation; settings: read-out: IZ
Colletotrichum falcatum [23] = assay: Antifungal activity against Glomerella tucumanensis at 300 ug/ml after 48 hr; settings: read-out: IZ
Escherichia coli [24] = assay: Antibacterial activity against Escherichia coli at 900 ug/ml after overnight incubation; settings: read-out: IZ
Candida albicans [25] = assay: Antifungal activity against Candida albicans at 600 ug/ml after 48 hr; settings: read-out: IZ
Enterococcus faecalis [26] = assay: Antibacterial activity against Enterococcus faecalis at 600 ug/ml after overnight incubation; settings: read-out: IZ
Streptococcus pyogenes [27] = assay: Antibacterial activity against Streptococcus pyogenes at 900 ug/ml after overnight incubation; settings: read-out: IZ
Staphylococcus aureus [28] = assay: Antibacterial activity against Staphylococcus aureus at 900 ug/ml after overnight incubation; settings: for zone of inhibition at 900 µg/mL: read-out: IZ
Bacillus pumilus [29] = assay: Antibacterial activity against Bacillus pumilus at 600 ug/ml after overnight incubation; settings: read-out: IZ
Klebsiella pneumoniae [30] = assay: Antibacterial activity against Klebsiella pneumoniae at 600 ug/ml after overnight incubation; settings: read-out: IZ
Proteus vulgaris [31] = assay: Antibacterial activity against Proteus vulgaris at 600 ug/ml after overnight incubation; settings: read-out: IZ
Bacillus subtilis [32] = assay: Antibacterial activity against Bacillus subtilis at 900 ug/ml after overnight incubation; settings: read-out: IZ
Fusarium oxysporum [33] = assay: Antifungal activity against Fusarium oxysporum at 1200 ug/ml after 48 hr; settings: read-out: IZ
Priestia megaterium [34] = assay: Antibacterial activity against Bacillus megaterium at 600 ug/ml after overnight incubation; settings: for zone of inhibition at 600 µg/mL: read-out: IZ
Exserohilum rostratum [35] = assay: Antifungal activity against Setosphaeria rostrata at 600 ug/ml after 48 hr; settings: read-out: IZ
Candida albicans [36] = assay: Antifungal activity against Candida albicans at 1200 ug/ml after 48 hr; settings: read-out: IZ

Row | SMILES | zone of inhibition at 900 µg/mL (Klebsiella pneumoniae [1]) [mm] | zone of inhibition at 900 µg/mL (Colletotrichum falcatum [2]) [mm] | zone of inhibition at 600 µg/mL (Colletotrichum falcatum [3]) [mm] | zone of inhibition at 900 µg/mL (Proteus vulgaris [4]) [mm] | zone of inhibition at 1200 µg/mL (Exserohilum rostratum [5]) [mm] | zone of inhibition at 300 µg/mL (Exserohilum rostratum [6]) [mm] | zone of inhibition at 900 µg/mL (Candida albicans [8]) [mm] | zone of inhibition at 900 µg/mL (Klebsiella aerogenes [9]) [mm] | zone of inhibition at 600 µg/mL (Escherichia coli [10]) [mm] | zone of inhibition at 600 µg/mL (Klebsiella aerogenes [11]) [mm] | zone of inhibition at 600 µg/mL (Fusarium oxysporum [12]) [mm] | zone of inhibition at 1200 µg/mL (Colletotrichum falcatum [13]) [mm] | zone of inhibition at 600 µg/mL (Bacillus subtilis [14]) [mm] | zone of inhibition at 300 µg/mL (Candida albicans [15]) [mm] | zone of inhibition at 900 µg/mL (Enterococcus faecalis [16]) [mm] | zone of inhibition at 600 µg/mL (Streptococcus pyogenes [17]) [mm] | zone of inhibition at 900 µg/mL (Exserohilum rostratum [18]) [mm] | zone of inhibition at 900 µg/mL (Fusarium oxysporum [19]) [mm] | zone of inhibition at 300 µg/mL (Fusarium oxysporum [21]) [mm] | zone of inhibition at 900 µg/mL (Bacillus pumilus [22]) [mm] | other results
1 | Cc1c(Br)cccc1-c1nnc(CN2CCC(n3nc4ccccc4n3)CC2)o1 | 10.2 | 15.4 | 8.25 | 7.05 | 23.9 | 2.98 | 9.36 | 7.56 | 5.23 | 3.65 | 6.56 | 29.3 | 4.8 | 2.09 | 12.1 | 4.82 | 11.3 | 13.3 | 3.42 | 8.54 | zone of inhibition at 600 µg/mL (Staphylococcus aureus [7]): 4.8 mm; zone of inhibition at 900 µg/mL (Priestia megaterium [20]): 10.3 mm; zone of inhibition at 300 µg/mL (Colletotrichum falcatum [23]): 3.97 mm; zone of inhibition at 900 µg/mL (Escherichia coli [24]): 9.46 mm; zone of inhibition at 600 µg/mL (Candida albicans [25]): 4.18 mm; zone of inhibition at 600 µg/mL (Enterococcus faecalis [26]): 5.92 mm; zone of inhibition at 900 µg/mL (Streptococcus pyogenes [27]): 9.25 mm; zone of inhibition at 900 µg/mL (Staphylococcus aureus [28]): 10 mm; zone of inhibition at 600 µg/mL (Bacillus pumilus [29]): 4.29 mm; zone of inhibition at 600 µg/mL (Klebsiella pneumoniae [30]): 5.25 mm; zone of inhibition at 600 µg/mL (Proteus vulgaris [31]): 3.45 mm; zone of inhibition at 900 µg/mL (Bacillus subtilis [32]): 9.8 mm; zone of inhibition at 1200 µg/mL (Fusarium oxysporum [33]): 24.9 mm; zone of inhibition at 600 µg/mL (Priestia megaterium [34]): 5.3 mm; zone of inhibition at 600 µg/mL (Exserohilum rostratum [35]): 5.25 mm; zone of inhibition at 1200 µg/mL (Candida albicans [36]): 17.9 mm
2 | CC(C)(C)c1cc(-c2nnc(CN3CCC(n4nc5ccccc5n4)CC3)o2)cc(C(C)(C)C)c1 | 7.85 | 15.8 | 8.32 | 9.45 | 29.8 | 4.54 | 15 | 7.25 | 3.25 | 3.5 | 9.25 | 32 | 5.05 | 3.97 | 11.6 | 3.95 | 15.9 | 17.9 | 4.5 | 9.95 | zone of inhibition at 600 µg/mL (Staphylococcus aureus [7]): 4.3 mm; zone of inhibition at 900 µg/mL (Priestia megaterium [20]): 8.21 mm; zone of inhibition at 300 µg/mL (Colletotrichum falcatum [23]): 3.98 mm; zone of inhibition at 900 µg/mL (Escherichia coli [24]): 6.8 mm; zone of inhibition at 600 µg/mL (Candida albicans [25]): 7.08 mm; zone of inhibition at 600 µg/mL (Enterococcus faecalis [26]): 5.85 mm; zone of inhibition at 900 µg/mL (Streptococcus pyogenes [27]): 8.95 mm; zone of inhibition at 900 µg/mL (Staphylococcus aureus [28]): 9.05 mm; zone of inhibition at 600 µg/mL (Bacillus pumilus [29]): 4.56 mm; zone of inhibition at 600 µg/mL (Klebsiella pneumoniae [30]): 3.85 mm; zone of inhibition at 600 µg/mL (Proteus vulgaris [31]): 4.95 mm; zone of inhibition at 900 µg/mL (Bacillus subtilis [32]): 11.2 mm; zone of inhibition at 1200 µg/mL (Fusarium oxysporum [33]): 33.8 mm; zone of inhibition at 600 µg/mL (Priestia megaterium [34]): 3.95 mm; zone of inhibition at 600 µg/mL (Exserohilum rostratum [35]): 8.25 mm; zone of inhibition at 1200 µg/mL (Candida albicans [36]): 29.9 mm
3 | COc1cccc(-c2nnc(CN3CCC(n4nc5ccccc5n4)CC3)o2)c1 | 7.25 | 13.9 | 7.76 | 8.45 | 19.2 | 3.32 | 9.86 | 7.56 | 3.35 | 3.65 | 5.86 | 25.9 | 4.25 | 2.52 | 9.26 | 4.47 | 10.2 | 10.1 | 3.35 | 11.2 | inhibition zone (IZ) (Staphylococcus aureus [7]): inactive; inhibition zone (IZ) (Priestia megaterium [20]): inactive; zone of inhibition at 300 µg/mL (Colletotrichum falcatum [23]): 4.56 mm; zone of inhibition at 900 µg/mL (Escherichia coli [24]): 6.26 mm; zone of inhibition at 600 µg/mL (Candida albicans [25]): 5.01 mm; zone of inhibition at 600 µg/mL (Enterococcus faecalis [26]): 4.25 mm; zone of inhibition at 900 µg/mL (Streptococcus pyogenes [27]): 11.3 mm; inhibition zone (IZ) (Staphylococcus aureus [28]): inactive; zone of inhibition at 600 µg/mL (Bacillus pumilus [29]): 5.56 mm; zone of inhibition at 600 µg/mL (Klebsiella pneumoniae [30]): 3.25 mm; zone of inhibition at 600 µg/mL (Proteus vulgaris [31]): 4.36 mm; zone of inhibition at 900 µg/mL (Bacillus subtilis [32]): 9.56 mm; zone of inhibition at 1200 µg/mL (Fusarium oxysporum [33]): 21.3 mm; inhibition zone (IZ) (Priestia megaterium [34]): inactive; zone of inhibition at 600 µg/mL (Exserohilum rostratum [35]): 5.85 mm; zone of inhibition at 1200 µg/mL (Candida albicans [36]): 17.2 mm
4 | c1ccc(-c2nnc(CN3CCC(n4nc5ccccc5n4)CC3)o2)cc1 | 6.56 | 13.2 | 7.26 | 7.5 | 24 | 3.15 | 13.2 | 11.2 | 2.24 | 5.82 | 4.85 | 27.9 | 2.65 | 3.12 | 9.25 | 4.01 | 11.8 | 10.2 | 2.25 | 8.65 | zone of inhibition at 600 µg/mL (Staphylococcus aureus [7]): 3.26 mm; zone of inhibition at 900 µg/mL (Priestia megaterium [20]): 11.4 mm; zone of inhibition at 300 µg/mL (Colletotrichum falcatum [23]): 3.56 mm; zone of inhibition at 900 µg/mL (Escherichia coli [24]): 4.85 mm; zone of inhibition at 600 µg/mL (Candida albicans [25]): 6.05 mm; zone of inhibition at 600 µg/mL (Enterococcus faecalis [26]): 4.25 mm; zone of inhibition at 900 µg/mL (Streptococcus pyogenes [27]): 8.25 mm; zone of inhibition at 900 µg/mL (Staphylococcus aureus [28]): 8.25 mm; zone of inhibition at 600 µg/mL (Bacillus pumilus [29]): 4.25 mm; zone of inhibition at 600 µg/mL (Klebsiella pneumoniae [30]): 3.35 mm; zone of inhibition at 600 µg/mL (Proteus vulgaris [31]): 3.8 mm; zone of inhibition at 900 µg/mL (Bacillus subtilis [32]): 5.45 mm; zone of inhibition at 1200 µg/mL (Fusarium oxysporum [33]): 21.3 mm; zone of inhibition at 600 µg/mL (Priestia megaterium [34]): 5.82 mm; zone of inhibition at 600 µg/mL (Exserohilum rostratum [35]): 6.25 mm; zone of inhibition at 1200 µg/mL (Candida albicans [36]): 24.2 mm
